Experimental findings from PubChem BioAssay (NCI) are described below.

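The concentration for 50% growth inhibition is given as GI50. At the TGI there is no net growth.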

Among the test systems are IGROV1 ovarian; HCT-116 colon; NCI-H226 lung; UACC-257 melanoma; NCI/ADR-RES ovarian; MALME-3M melanoma; MDA-MB-231 breast; OVCAR-4 ovarian; OVCAR-5 ovarian; EKVX NSCLC; SK-MEL-2 melanoma; NCI-H460 NSCLC.
Holding throughout (test): DTP human tumour cell line panel, 384-well format

In the case of `O=C(Cc1ccccc1)Nc1nnc(CCSCCc2nnc(NC(=O)Cc3ccccc3)s2)s1`, the GI50 is 29.1 µM with IGROV1 ovarian; above 72.6 µM in the experiment with HCT-116 colon; 7.56 µM in the experiment with NCI-H226 lung; 13.5 µM in the experiment on UACC-257 melanoma; above 100 µM in the experiment on NCI/ADR-RES ovarian; 16.1 µM in the experiment on MALME-3M melanoma. Besides, the GI50 with MDA-MB-231 breast was 3.07 µM; in the experiment with OVCAR-4 ovarian, 13.2 µM; in the experiment with OVCAR-5 ovarian, 16.7 µM; in the experiment with EKVX NSCLC, 17.2 µM; in the experiment on SK-MEL-2 melanoma it was 3.07 µM; with NCI-H460 NSCLC it was 10.8 µM. Also, the concentration for total growth inhibition (TGI) is above 94 µM in the experiment on IGROV1 ovarian; above 100 µM in the experiment with HCT-116 colon; 31.3 µM with NCI-H226 lung; above 76.6 µM in the experiment with UACC-257 melanoma; above 100 µM in the experiment with NCI/ADR-RES ovarian; 45.5 µM in the experiment with MALME-3M melanoma. The TGI is 28.9 µM in the experiment with MDA-MB-231 breast; 40.5 µM in the experiment on OVCAR-4 ovarian; above 100 µM in the experiment with OVCAR-5 ovarian; above 92.9 µM in the experiment with EKVX NSCLC; 10.7 µM in the experiment with SK-MEL-2 melanoma; above 100 µM in the experiment with NCI-H460 NSCLC.
